Fold induction and IC50 data for two compounds are collected here from US6015818A, “Quinoline derivatives as bradykinin agonists” (Fujisawa Pharmaceutical Co., Ltd., priority 1996, dated 2000).

Assay [1] deals with WI-38 PGE2 production. In words: Prostaglandin E2 (PGE2) production in human fibroblasts (WI-38). The format is cell-based. The settings on record: WI-38, 0.5 h, concentration: 1 × 10^-6 M, 30 minutes at 37° C., PGE2 by EIA, read-out: WI-38 PGE2 production increase ratio. The method, then: (II) Prostaglandin E2 (PGE2) production in human fibroblasts
The assay of PGE2 production was modified from the procedure described in The Journal of Biological Chemistry, 257, 8630-8633 (1982).
Human fibroblasts (WI-38, ATCC CCL75) were grown in Eagle's Minimum Essential Medium [E-MEM: ICN Biomedical Inc., Cat. No. 10-101-24 (47.6 g) with sodium bicarbonate (11.0 g), penicillin G potassium salt (0.5 g), streptomycin sulfate (0.5 g) in water (5000 ml) and 10% fetal bovine serum]. The cells were placed into the quiescent state after confluence was reached.
(b) Measurements of PGE2 production
WI-38 cells were seeded in 24-well plates at a density of 1×10^5 cells/well with 0.5 ml of E-MEM including 1% fetal bovine serum and were cultured for 1 day. The mediums in 24-well plates in which WI-38 cells were cultured were removed by aspiration and Hanks-bovine serum albumin buffer [Hanks-BSA Buffer: Hanks' balanced salts (4.9 g), sodium bicarbonate (0.1 g) and bovine serum albumin (protease free) (0.5 g)] was added thereto. […] Supernatant was collected, and PGE2 level included therein was measured by PGE2 EIA Kit (Cayman Chemical Co.).

Assay [2] deals with T1, Bradykinin receptor (Cavia porcellus, UniProt O70526).
T1 construct: The ileum was removed and homogenized in buffer; from tissue; host or cells: guinea pig (male Hartley strain) ileum, crude membrane suspension
T1 sequence (O70526 1-372): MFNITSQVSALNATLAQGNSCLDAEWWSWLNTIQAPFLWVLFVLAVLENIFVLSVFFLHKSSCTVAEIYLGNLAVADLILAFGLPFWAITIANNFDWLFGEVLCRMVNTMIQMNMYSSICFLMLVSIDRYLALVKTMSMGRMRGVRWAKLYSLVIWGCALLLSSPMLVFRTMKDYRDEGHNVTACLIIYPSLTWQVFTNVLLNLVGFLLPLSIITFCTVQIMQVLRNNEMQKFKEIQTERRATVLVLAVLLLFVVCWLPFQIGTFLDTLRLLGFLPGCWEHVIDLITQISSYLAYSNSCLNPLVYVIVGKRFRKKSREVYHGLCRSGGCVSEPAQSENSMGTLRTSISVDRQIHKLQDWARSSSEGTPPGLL
In words: 3H-Bradykinin receptor binding (crude guinea pig ileum membrane). Also noted: species or system guinea pigs. The settings on record: 3H-Bradykinin 0.06 nM, room temperature, 60 minutes, read-out: Inhibition of ^3 H-Bradykinin binding: IC50. Here is the method: (I) ^3 H-Bradykinin receptor binding
(a) Crude ileum membrane preparation
Male Hartly strain guinea pigs were sacrificed by decapitation. The ileum was removed and homogenized in buffer (50 mM 2-[[tris(hydroxymethyl)methyl]amino]-1-ethanesulfonic acid (TES), 1 mM 1,10-phenanthroline pH 6.8). The homogenate was centrifuged (1000×g,20 minutes) to remove tissue clumps and the supernatant was centrifuges (100,000×g, 60 minutes) to yield a pellet. The pellet was resuspended in buffer (50 mM TES, 1 mM 1,10-phenanthroline, 140 mg/l bacitracin, 1 mM dithiothreiol, 0.1% bovine serum albumin pH 6.8) and homogenized with a glass-teflon homogenizer to yield suspension which was referred to as crude membrane suspension. The obtained membrane suspension was stored at -80° C. until use.
(b) ^3 H-Bradykinin binding to the membrane
The frozen crude membrane suspension was thawed. In binding assays, ^3 H-Bradykinin (0.06 nM) and drug were incubated with 50 μl of the membrane suspension at room temperature for 60 minutes in a final volume of 250 μ1. Separation of receptor-bound from free ^3 H-Bradykinin is achieved by immediate filtration under vacuum and washed three times with 5 ml of ice-cold buffer (50 mM Tris-HCl pH 7.5). Non-specific binding was defined as binding in the presence of 0.1 μM Bradykinin. The radioactivity retained on rinsed filters was determined by a liquid-scintillation counter.

Usually IC50 stands for the midpoint of a concentration-inhibition curve. For `COc1nc2c(OCc3c(Cl)ccc(N(C)C(=O)CNC(=O)/C=C/c4ccc(NC(C)=O)nc4)c3Cl)cccc2n1Cc1ccccn1` [Example 9, 4-[3-[N-[(E)-3-(6-acetamidopyridin-3-yl)acryloylglycyl]-N-methylamino]-2,6-dichlorobenzyloxy]-2-methoxy-1-(2-pyridylmethyl)-1H-benzimidazole], the fold induction at 1 µM in assay [1] worked out at 10.8. Also, the IC50 in assay [2] is 6.3 nM.
As for `CNC(=O)c1ccc(C=CC(=O)NCC(=O)N(C)c2ccc(Cl)c(COc3cccc4c(OCc5ccccn5)cc(C)nc34)c2Cl)cc1` [Example 1-(2), 8-[2,6-dichloro-3-[N-[4-(methylcarbamoyl)cinnamoylglycyl]-N-methylamino]benzyloxy]-2-methyl-4-(2-pyridylmethoxy)quinoline], the fold induction at 1 µM in assay [1] stood at 7.95. In assay [2], the IC50 was 0.99 nM.
